{"source": "ChEMBL document CHEMBL5357068", "about": "“Discovery of Novel TLR7 Agonists as Systemic Agent for Combination With aPD1 for Use in Immuno-oncology” (ACS Med Chem Lett, 2024)", "key": {"[1]": {"test": "Drug concentration in Balb/c mouse at 0.5 mg/kg, iv measured after 5 min by LC-MS analysis", "assay_type": "ADME, organism-based", "details": "in vivo, read-out: Drug uptake"}, "[2]": {"test": "Metabolic stability in human liver microsomes assessed as half-life", "assay_type": "ADME, Microsome"}, "[3]": {"test": "Permeability of compound at pH 5.5 by PAMPA", "assay_type": "ADME", "details": "read-out: permeability"}, "[4]": {"test": "Metabolic stability in human liver microsomes assessed as compound remaining", "assay_type": "ADME, Microsome"}, "[5]": {"test": "Inhibition of GPCR (unknown origin)", "design": "species or system Homo sapiens"}, "[6]": {"system": "Mus musculus", "test": "Induction of IFN-alpha production in iv dosed Balb/c mouse serum measured after 6 hrs by ELISA analysis", "assay_type": "functional, organism-based", "details": "dose lower […], dose upper 0.5 mg/kg"}, "[7]": {"system": "Blood", "test": "Induction of IFIT1 secretion in mouse whole blood", "assay_type": "functional, tissue-based"}, "[8]": {"target": "T1, Toll-like receptor 8 (Homo sapiens) (UniProt Q9NR97)", "T1 sequence (whole entry)": "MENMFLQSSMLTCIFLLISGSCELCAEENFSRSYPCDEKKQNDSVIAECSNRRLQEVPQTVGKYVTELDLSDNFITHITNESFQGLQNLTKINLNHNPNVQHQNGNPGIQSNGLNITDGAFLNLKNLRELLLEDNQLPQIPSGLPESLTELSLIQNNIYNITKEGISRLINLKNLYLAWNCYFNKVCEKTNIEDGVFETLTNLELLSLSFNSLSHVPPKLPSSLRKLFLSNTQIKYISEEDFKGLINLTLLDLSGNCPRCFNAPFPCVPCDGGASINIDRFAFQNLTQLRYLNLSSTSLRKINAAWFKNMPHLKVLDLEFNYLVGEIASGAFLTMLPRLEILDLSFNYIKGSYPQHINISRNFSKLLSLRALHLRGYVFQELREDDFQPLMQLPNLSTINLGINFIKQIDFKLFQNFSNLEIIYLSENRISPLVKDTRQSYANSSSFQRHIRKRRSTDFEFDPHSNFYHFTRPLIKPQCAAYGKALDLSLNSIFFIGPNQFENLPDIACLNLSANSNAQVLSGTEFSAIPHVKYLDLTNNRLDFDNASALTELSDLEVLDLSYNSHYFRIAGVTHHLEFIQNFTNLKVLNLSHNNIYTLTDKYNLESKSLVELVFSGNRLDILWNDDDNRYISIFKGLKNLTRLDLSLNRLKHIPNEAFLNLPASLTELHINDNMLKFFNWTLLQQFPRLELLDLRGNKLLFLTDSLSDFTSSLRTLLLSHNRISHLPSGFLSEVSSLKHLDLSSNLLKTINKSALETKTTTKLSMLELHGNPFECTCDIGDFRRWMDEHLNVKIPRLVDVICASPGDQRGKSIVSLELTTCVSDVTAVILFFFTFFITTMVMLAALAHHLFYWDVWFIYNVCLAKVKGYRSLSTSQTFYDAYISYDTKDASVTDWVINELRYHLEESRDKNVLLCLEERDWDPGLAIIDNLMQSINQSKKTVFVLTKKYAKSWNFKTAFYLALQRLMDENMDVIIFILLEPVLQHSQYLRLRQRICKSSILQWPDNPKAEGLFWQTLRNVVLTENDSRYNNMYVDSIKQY", "test": "Agonist activity at human TLR8"}, "[9]": {"system": "THP-1", "test": "Cytotoxicity against human THP-1 cells", "assay_type": "toxicity, cell-based"}, "[10]": {"system": "Mus musculus", "test": "Induction of IFN-alpha production in Balb/c mouse serum at […], iv measured after 6 hrs by ELISA analysis", "assay_type": "functional, organism-based"}, "[11]": {"test": "Metabolic stability in mouse liver microsomes assessed as half-life", "assay_type": "ADME, Microsome"}, "[12]": {"test": "Protein binding in human plasma assessed as free fraction", "assay_type": "ADME, cell-free"}, "[13]": {"system": "Blood", "test": "Induction of TNF-alpha secretion in mouse whole blood", "assay_type": "functional, tissue-based"}, "[14]": {"test": "Permeability of compound across apical to basolateral side in human Caco-2 cells", "assay_type": "ADME, cell-based", "details": "read-out: permeability"}, "[15]": {"system": "CT26", "test": "Antitumor activity against mouse CT26 cells implanted in Balb/cAnNHsd mouse administered intraperitoneally once a week for 4 weeks in the presence of aPD1 antibody", "assay_type": "functional", "details": "dose lower […], dose upper […], route ip"}, "[16]": {"test": "Clearance in Balb/c mouse at 0.5 mg/kg, iv measured after 2 hrs by LC-MS analysis", "assay_type": "ADME, organism-based", "details": "in vivo"}, "[17]": {"system": "Blood", "test": "Induction of MX1 secretion in human whole blood", "assay_type": "functional, tissue-based"}, "[18]": {"system": "Blood", "test": "Induction of IP-10 secretion in human whole blood", "assay_type": "functional, tissue-based"}, "[19]": {"system": "Blood", "test": "Induction of IFIT1 secretion in human whole blood", "assay_type": "functional, tissue-based"}}, "note": "Calls of active or inactive are those of the source. No cut-off for these calls is given here.", "data": [{"molecule": "CCC[C@@H](CCO)Nc1nc(N)nc2cnn(Cc3ccc(CNC4CCOCC4)cc3OC)c12", "values": [{"measurement": "concentration at 5 min", "setting": "[1]", "value": 139, "unit": "nM"}, {"measurement": "half-life", "setting": "[2]", "value": 0.717, "unit": "h"}, {"measurement": "Papp", "setting": "[3]", "value": 0.95, "unit": "×10⁻⁶ cm/s"}, {"measurement": "Stability", "setting": "[4]", "value": 75, "unit": "%"}, {"measurement": "IC50", "setting": "[5]", "value": "> 30000", "unit": "nM"}, {"measurement": "Activity", "setting": "[6]", "value": "Dose-Dependent Effect"}, {"measurement": "EC50", "setting": "[7]", "value": 0.19, "unit": "nM"}, {"measurement": "EC", "setting": "[8]", "value": "> 5", "unit": "µM"}, {"measurement": "EC", "setting": "[9]", "value": "> 25", "unit": "µM"}, {"measurement": "Activity", "setting": "[10]", "value": "inactive"}, {"measurement": "half-life", "setting": "[11]", "value": 1.42, "unit": "h"}, {"measurement": "fraction unbound", "setting": "[12]", "value": 0.5}, {"measurement": "EC50", "setting": "[13]", "value": 3.4, "unit": "nM"}, {"measurement": "Papp A→B", "setting": "[14]", "value": 1.4, "unit": "×10⁻⁶ cm/s"}, {"measurement": "Activity", "setting": "[15]", "value": "Dose-Dependent Effect"}, {"measurement": "clearance", "setting": "[16]", "value": 160, "unit": "mL/min/kg"}, {"measurement": "EC50", "setting": "[17]", "value": 0.09, "unit": "nM"}, {"measurement": "EC50", "setting": "[18]", "value": 0.13, "unit": "nM"}, {"measurement": "EC50", "setting": "[19]", "value": 0.1, "unit": "nM"}]}]}
